From PubChem BioAssay (NCI)
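GI50 marks 50% less growth. At the TGI there is no net growth.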

Tests used:
Test in all cases: NCI-60 cell line screen, 384-well format
A498 renal = test system: A498 renal
A549 NSCLC = test system: A549 NSCLC
ACHN renal = test system: ACHN renal
BT-549 breast = test system: BT-549 breast
CAKI-1 renal = test system: CAKI-1 renal
COLO 205 colon = test system: COLO 205 colon
DU-145 prostate = test system: DU-145 prostate
EKVX NSCLC = test system: EKVX NSCLC
HCC-2998 colon = test system: HCC-2998 colon
HCT-116 colon = test system: HCT-116 colon
HCT-15 colon = test system: HCT-15 colon
HL-60(TB) leukemia = test system: HL-60(TB) leukemia
HOP-62 NSCLC = test system: HOP-62 NSCLC
HOP-92 NSCLC = test system: HOP-92 NSCLC
HS 578T breast = test system: HS 578T breast
HT29 colon = test system: HT29 colon
IGROV1 ovarian = test system: IGROV1 ovarian
KM12 colon = test system: KM12 colon
LOX IMVI melanoma = test system: LOX IMVI melanoma
M14 melanoma = test system: M14 melanoma
MALME-3M melanoma = test system: MALME-3M melanoma
MCF7 breast = test system: MCF7 breast
MDA-MB-231 breast = test system: MDA-MB-231 breast
MDA-MB-435 melanoma = test system: MDA-MB-435 melanoma
MDA-MB-468 breast = test system: MDA-MB-468 breast
MOLT-4 leukemia = test system: MOLT-4 leukemia
NCI-H226 lung = test system: NCI-H226 lung
NCI-H23 lung = test system: NCI-H23 lung
NCI-H322M lung = test system: NCI-H322M lung
NCI-H460 NSCLC = test system: NCI-H460 NSCLC
NCI-H522 lung = test system: NCI-H522 lung
NCI/ADR-RES ovarian = test system: NCI/ADR-RES ovarian
OVCAR-3 ovarian = test system: OVCAR-3 ovarian
OVCAR-4 ovarian = test system: OVCAR-4 ovarian
OVCAR-5 ovarian = test system: OVCAR-5 ovarian
OVCAR-8 ovarian = test system: OVCAR-8 ovarian
PC-3 prostate = test system: PC-3 prostate
RPMI-8226 leukemia = test system: RPMI-8226 leukemia
RXF 393 renal = test system: RXF 393 renal
SF-268 CNS = test system: SF-268 CNS
SF-295 CNS = test system: SF-295 CNS
SF-539 CNS = test system: SF-539 CNS
SK-MEL-28 melanoma = test system: SK-MEL-28 melanoma
SK-MEL-5 melanoma = test system: SK-MEL-5 melanoma
SK-OV-3 ovarian = test system: SK-OV-3 ovarian
SN12C renal = test system: SN12C renal
SNB-19 CNS = test system: SNB-19 CNS
SNB-75 CNS = test system: SNB-75 CNS
SR leukemia = test system: SR leukemia
T-47D breast = test system: T-47D breast
TK-10 renal = test system: TK-10 renal
U251 glioblastoma = test system: U251 glioblastoma
UACC-257 melanoma = test system: UACC-257 melanoma
UACC-62 melanoma = test system: UACC-62 melanoma

Cc1c(Cn2c(C)nc3c(C(=O)O)cc(N4CCOCC4)cc32)cccc1C(F)(F)F
GI50 (A498 renal): 0.462 µM
TGI (A498 renal): 8.29 µM
GI50 (A549 NSCLC): 62.1 µM
TGI (A549 NSCLC): > 100 µM
GI50 (ACHN renal): 20.8 µM
TGI (ACHN renal): > 100 µM
GI50 (BT-549 breast): 67.4 µM
TGI (BT-549 breast): > 100 µM
GI50 (CAKI-1 renal): 57.7 µM
TGI (CAKI-1 renal): > 100 µM
GI50 (COLO 205 colon): 99.8 µM
TGI (COLO 205 colon): > 100 µM
GI50 (DU-145 prostate): 52.1 µM
TGI (DU-145 prostate): > 100 µM
GI50 (EKVX NSCLC): 58.1 µM
TGI (EKVX NSCLC): > 100 µM
GI50 (HCC-2998 colon): 45.2 µM
TGI (HCC-2998 colon): > 100 µM
GI50 (HCT-116 colon): 38.2 µM
TGI (HCT-116 colon): > 100 µM
GI50 (HCT-15 colon): 3.97 µM
TGI (HCT-15 colon): > 100 µM
GI50 (HL-60(TB) leukemia): 18.3 µM
TGI (HL-60(TB) leukemia): > 100 µM
GI50 (HOP-62 NSCLC): 24.5 µM
TGI (HOP-62 NSCLC): > 100 µM
GI50 (HOP-92 NSCLC): 72.7 µM
TGI (HOP-92 NSCLC): > 100 µM
GI50 (HS 578T breast): 82.8 µM
TGI (HS 578T breast): > 100 µM
GI50 (HT29 colon): 54.7 µM
TGI (HT29 colon): > 100 µM
GI50 (IGROV1 ovarian): 64.4 µM
TGI (IGROV1 ovarian): > 100 µM
GI50 (KM12 colon): 73 µM
TGI (KM12 colon): > 100 µM
GI50 (LOX IMVI melanoma): 33.1 µM
TGI (LOX IMVI melanoma): > 100 µM
GI50 (M14 melanoma): 30.1 µM
TGI (M14 melanoma): > 100 µM
GI50 (MALME-3M melanoma): > 100 µM
TGI (MALME-3M melanoma): > 100 µM
GI50 (MCF7 breast): 59.9 µM
TGI (MCF7 breast): > 100 µM
GI50 (MDA-MB-231 breast): 97.2 µM
TGI (MDA-MB-231 breast): > 100 µM
GI50 (MDA-MB-435 melanoma): 75 µM
TGI (MDA-MB-435 melanoma): > 100 µM
GI50 (MDA-MB-468 breast): 49.2 µM
TGI (MDA-MB-468 breast): > 100 µM
GI50 (MOLT-4 leukemia): 19.6 µM
TGI (MOLT-4 leukemia): 41.4 µM
GI50 (NCI-H226 lung): 64.9 µM
TGI (NCI-H226 lung): > 100 µM
GI50 (NCI-H23 lung): 85.8 µM
TGI (NCI-H23 lung): > 100 µM
GI50 (NCI-H322M lung): 60.9 µM
TGI (NCI-H322M lung): > 100 µM
GI50 (NCI-H460 NSCLC): 33.9 µM
TGI (NCI-H460 NSCLC): > 100 µM
GI50 (NCI-H522 lung): 75.6 µM
TGI (NCI-H522 lung): > 100 µM
GI50 (NCI/ADR-RES ovarian): 3.1 µM
TGI (NCI/ADR-RES ovarian): 11.1 µM
GI50 (OVCAR-3 ovarian): 39.3 µM
TGI (OVCAR-3 ovarian): > 100 µM
GI50 (OVCAR-4 ovarian): 31.8 µM
TGI (OVCAR-4 ovarian): > 100 µM
GI50 (OVCAR-5 ovarian): 52.4 µM
TGI (OVCAR-5 ovarian): > 100 µM
GI50 (OVCAR-8 ovarian): 44.1 µM
TGI (OVCAR-8 ovarian): > 100 µM
GI50 (PC-3 prostate): 26.9 µM
TGI (PC-3 prostate): > 100 µM
GI50 (RPMI-8226 leukemia): 46.7 µM
TGI (RPMI-8226 leukemia): > 100 µM
GI50 (RXF 393 renal): 14.6 µM
TGI (RXF 393 renal): > 100 µM
GI50 (SF-268 CNS): 70.6 µM
TGI (SF-268 CNS): > 100 µM
GI50 (SF-295 CNS): 22.2 µM
TGI (SF-295 CNS): > 100 µM
GI50 (SF-539 CNS): 54 µM
TGI (SF-539 CNS): > 100 µM
GI50 (SK-MEL-28 melanoma): > 100 µM
TGI (SK-MEL-28 melanoma): > 100 µM
GI50 (SK-MEL-5 melanoma): 18 µM
TGI (SK-MEL-5 melanoma): 57.8 µM
GI50 (SK-OV-3 ovarian): 61.8 µM
TGI (SK-OV-3 ovarian): > 100 µM
GI50 (SN12C renal): 30.6 µM
TGI (SN12C renal): > 100 µM
GI50 (SNB-19 CNS): 89.1 µM
TGI (SNB-19 CNS): > 100 µM
GI50 (SNB-75 CNS): 63.4 µM
TGI (SNB-75 CNS): > 100 µM
GI50 (SR leukemia): 18.5 µM
TGI (SR leukemia): 40.8 µM
GI50 (T-47D breast): > 100 µM
TGI (T-47D breast): > 100 µM
GI50 (TK-10 renal): 35.2 µM
TGI (TK-10 renal): > 100 µM
GI50 (U251 glioblastoma): 48.8 µM
TGI (U251 glioblastoma): > 100 µM
GI50 (UACC-257 melanoma): 56.3 µM
TGI (UACC-257 melanoma): > 100 µM
GI50 (UACC-62 melanoma): 75.8 µM
TGI (UACC-62 melanoma): > 100 µM
